{
  "source": "patent US20180193287A1",
  "about": "“HOPS-BASED SUBSTANCE AND USE OF THE SUBSTANCE” (John I. Haas, Inc., priority 2015, published 2018)",
  "test_system": "acute liver damage in mice as a result of alcohol",
  "test": "acute liver damage in mice as a result of alcohol, liver tissue triglyceride (FIG. 3)",
  "assay_type": "in vivo",
  "conditions": "alcohol by gavage 6 g/kg body weight, XN 5 mg/kg and/or IAA 25 mg/kg body weight applied simultaneously, liver removed after 12 hours, P<0.05",
  "protocol": "A model used was acute liver damage in mice as a result of alcohol. Alcohol was applied to the mice by gavage (6 g/kg body weight). Furthermore, xanthohumol (XN; 5 mg/kg body weight), iso-alpha-acid (IAA; 25 mg/kg body weight) and a combination of xanthohumol (5 mg/kg body weight) and iso-alpha-acid (25 mg/kg body weight) were simultaneously applied in the experimental groups. After 12 hours the animals were sacrificed, the liver tissue was removed, and the triglyceride (TG) […] therein was determined. A control group of untreated mice (no-Alc) was also tested. In the “alcohol group”, a significant increase in TG can be seen in comparison with the “non-alcohol group”.\nAgain, the significance level is P<0.05. CTR stands for a group of alcohol-treated mice without addition of xanthohumol, iso-alpha-acid or a combination of xanthohumol and iso-alpha-acid.",
  "data": [
    {"smiles": "CC(C)=CCC(=O)[C@@]1(O)C(O)=C(C(=O)CC(C)C)C(=O)C1CC=C(C)C", "note": "(stereo partly drawn) [iso-alpha-acid]", "values": [
      {"measurement": "triglyceride (TG) content of liver tissue versus alcohol group", "value": "does not differ significantly"}
    ]},
    {"smiles": "COc1cc(O)c(CC=C(C)C)c(O)c1C(=O)/C=C/c1ccc(O)cc1", "note": "[xanthohumol]", "values": [
      {"measurement": "triglyceride (TG) content of liver tissue versus alcohol group", "value": "does not differ significantly"}
    ]}
  ]
}
